Reference: ChEMBL document CHEMBL1159300, “Salmahyrtisol A, a novel cytotoxic sesterterpene from the Red Sea sponge Hyrtios erecta” (J Nat Prod, 2002)

Assays:
Format in all cases: functional, cell-based
P388 = assay: Cytotoxicity against mouse P388 cells
HT-29 = assay: Cytotoxicity against human HT-29 cells
A549 = assay: Cytotoxicity against human A549 cells

Measured: IC50

CC(=O)OC[C@]1(C)CCC[C@]2(C)[C@H]3C[C@@H](O)[C@]4(C)C5=C(CC[C@H]4[C@]3(C)CC[C@@H]12)COC5=O
≥ 1 µg/mL: all assays above

CC(=O)O[C@H]1CC[C@]2(C)[C@H]3C[C@@H](O)[C@]4(C)C5=C(CC[C@H]4[C@]3(C)CC[C@H]2C1(C)C)COC5=O
≥ 1 µg/mL: all assays above

CC(=O)O[C@@H]1c2occc2[C@@H](O)C[C@H]2[C@]3(C)CC[C@H]4C(C)(C)CCC[C@]4(C)[C@H]3C[C@@]21C [SALMAHYRTISOL A]
≥ 1 µg/mL: all assays above

CC1(C)CCC[C@]2(C)[C@H]3C[C@@H](O)[C@]4(C)c5cocc5C(=O)C[C@H]4[C@]3(C)CC[C@@H]12 [SALMAHYRTISOL B]
≥ 1 µg/mL: all assays above
